Experimental data taken from patent US20240034736A1, “HSD17B13 INHIBITORS AND USES THEREOF” (FL2022-001, Inc., priority 2020, published 2024).

Molecular target: Recombinant human HSD17B13 enzyme (Homo sapiens (Human), UniProt Q7Z5P4)
Assay: HSD17b13 NAD(P)H-Glo Biochemical Assay
Settings: 50 uM estradiol, 1 mM NAD+; read-out: HSD17β13 IC50
Outline: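 Recombinant human HSD17B13 was pre-incubated with inhibitor for 20 min at RT in 20 mM Tris pH 7.4 with 0.002% Tween-20 and 0.02% BSA. Reaction then ran with 50 uM estradiol and 1 mM NAD+ (final) for 3 h at 37° C. NADH formed was detected by NAD(P)H-Glo luminescence after 1 h at RT.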

Recombinant human HSD17B13 enzyme, sequence (Q7Z5P4 20-300): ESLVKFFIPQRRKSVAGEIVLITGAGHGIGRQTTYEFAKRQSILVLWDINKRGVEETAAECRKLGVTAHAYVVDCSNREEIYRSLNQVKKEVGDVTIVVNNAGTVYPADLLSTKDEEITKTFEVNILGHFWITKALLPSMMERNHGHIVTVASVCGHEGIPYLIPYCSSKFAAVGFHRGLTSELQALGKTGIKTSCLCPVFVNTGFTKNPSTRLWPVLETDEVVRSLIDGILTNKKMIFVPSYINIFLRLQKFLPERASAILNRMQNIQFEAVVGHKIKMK

SMILES | IC50
CN(c1ccc2c(c1)c(C#N)nn2-c1cc(C(F)(F)F)c(F)c(O)c1F)C1CCOCC1 [Compound 19.90, 1-(2,4-Difluoro-3-hydroxy-5-(trifluoromethyl)phenyl)-5-(methyl(tetrahydro-2H-pyran-4-yl)amino)-1H-indazole-3-carbonitrile] | 100 to 1000 nM
CNc1c(-n2nc(Cl)c3cc(N(C)C4CCOCC4)ccc32)cc(C(F)(F)F)c(F)c1O [Compound 19.91, 3-(3-Chloro-5-(methyl(tetrahydro-2H-pyran-4-yl)amino)-1H-indazol-1-yl)-6-fluoro-2-(methylamino)-5-(trifluoromethyl)phenol] | 100 to 1000 nM
Cc1nn(-c2cc(O)c(F)c(NC(=O)C(F)(F)F)c2)c2cnc(N3CCOCC34CC4)cc12 [Compound 19.92, 2,2,2-Trifluoro-N-(2-fluoro-3-hydroxy-5-(3-methyl-5-(7-oxa-4-azaspiro[2.5]octan-4-yl)-1H-pyrazolo[3,4-c]pyridin-1-yl)phenyl)acetamide] | 1000 to 30000 nM
CN(c1ccc2c(c1)c(N)nn2-c1cc(C(F)(F)F)c(F)c(O)c1F)C1CCOCC1 [Compound 19.93, 3-(3-Amino-5-(methyl(tetrahydro-2H-pyran-4-yl)amino)-1H-indazol-1-yl)-2,6-difluoro-5-(trifluoromethyl)phenol] | 100 to 1000 nM
Cc1nn(-c2cc(C(F)(F)F)c(F)c(O)c2F)c2cnc(N3CCOCC34CC4)nc12 [Compound 19.95, 2,6-Difluoro-3-(3-methyl-5-(7-oxa-4-azaspiro[2.5]octan-4-yl)-1H-pyrazolo[4,3-d]pyrimidin-1-yl)-5-(trifluoromethyl)phenol] | 100 to 1000 nM
Cc1nn(-c2cc(O)c(F)c(C(N)=O)c2)c2cnc(N3CCOCC34CC4)cc12 [Compound 19.96, 2-Fluoro-3-hydroxy-5-(3-methyl-5-(7-oxa-4-azaspiro[2.5]octan-4-yl)-1H-pyrazolo[3,4-c]pyridin-1-yl)benzamide] | 1000 to 30000 nM
Cc1nn(-c2cc(O)c(F)c(C(C)O)c2)c2cnc(N3CCOCC34CC4)cc12 (stereo not shown) [Compound 19.97, 2-Fluoro-3-(1-hydroxyethyl)-5-(3-methyl-5-(7-oxa-4-azaspiro[2.5]octan-4-yl)-1H-pyrazolo[3,4-c]pyridin-1-yl)phenol] | 1000 to 30000 nM
Cc1nn(-c2cc(O)c(F)c(C(C)(F)F)c2)c2cnc(N3CCOCC34CC4)cc12 [Compound 19.98, 3-(1,1-Difluoroethyl)-2-fluoro-5-(3-methyl-5-(7-oxa-4-azaspiro[2.5]octan-4-yl)-1H-pyrazolo[3,4-c]pyridin-1-yl)phenol] | 100 to 1000 nM
Cc1nn(-c2cc(O)c(F)c(C(=O)N(C)C)c2)c2cnc(N3CCOCC34CC4)cc12 [Compound 19.99, 2-Fluoro-3-hydroxy-N,N-dimethyl-5-(3-methyl-5-(7-oxa-4-azaspiro[2.5]octan-4-yl)-1H-pyrazolo[3,4-c]pyridin-1-yl)benzamide] | 100 to 1000 nM
Cc1nn(-c2cc(C(F)(F)F)c(F)c(O)c2F)c2ccc(N(C)C3CCOCC3)c(F)c12 [Compound 19.101, 2,6-Difluoro-3-(4-fluoro-3-methyl-5-(methyl(tetrahydro-2H-pyran-4-yl)amino)-1H-indazol-1-yl)-5-(trifluoromethyl)phenol] | 100 to 1000 nM
Cc1nn(-c2cc(C(F)(F)F)c(F)c(O)c2F)c2cnc(N(C)C3CCOCC3)c(F)c12 [Compound 19.102, 2,6-Difluoro-3-(4-fluoro-3-methyl-5-(methyl(tetrahydro-2H-pyran-4-yl)amino)-1H-pyrazolo[3,4-c]pyridin-1-yl)-5-(trifluoromethyl)phenol] | 100 to 1000 nM
Cc1nn(-c2ccc(F)c(O)c2)c2cc(F)c(N3CCN(S(C)(=O)=O)CC34CC4)cc12 [Compound 19.103, 2-Fluoro-5-(6-fluoro-3-methyl-5-(7-(methylsulfonyl)-4,7-diazaspiro[2.5]octan-4-yl)-1H-indazol-1-yl)phenol] | 100 to 1000 nM
CNc1nn(-c2cc(C(F)(F)F)c(F)c(O)c2F)c2ccc(N(C)C3CCOCC3)cc12 [Compound 19.106, 2,6-Difluoro-3-(5-(methyl(tetrahydro-2H-pyran-4-yl)amino)-3-(methylamino)-1H-indazol-1-yl)-5-(trifluoromethyl)phenol] | 100 to 1000 nM
Cc1nn(-c2cc(C(F)(F)F)c(F)c(O)c2F)c2cnc(N3CCO[C@@H](c4ccccc4)C3)cc12 [Compound 19.109, (S)-2,6-Difluoro-3-(3-methyl-5-(2-phenylmorpholino)-1H-pyrazolo[3,4-c]pyridin-1-yl)-5-(trifluoromethyl)phenol] | 100 to 1000 nM
CN(c1ccc2c(c1)c(C(N)=O)nn2-c1cc(C(F)(F)F)c(F)c(O)c1F)C1CCOCC1 [Compound 19.111, 1-(2,4-Difluoro-3-hydroxy-5-(trifluoromethyl)phenyl)-5-(methyl(tetrahydro-2H-pyran-4-yl)amino)-1H-indazole-3-carboxamide] | 100 to 1000 nM

Results, then the compound that gave them:

IC50 | SMILES
< 100 nM | Cc1nn(-c2cc(C(F)(F)F)c(F)c(O)c2F)c2ccc(N3CCOCC34CC4)cc12 [Compound 19.94, 2,6-Difluoro-3-(3-methyl-5-(7-oxa-4-azaspiro[2.5]octan-4-yl)-1H-indazol-1-yl)-5-(trifluoromethyl)phenol]
< 100 nM | Cc1nn(-c2cc(C(F)(F)F)c(F)c(O)c2F)c2cc(F)c(N3CCN(S(C)(=O)=O)CC34CC4)cc12 [Compound 19.100, 2,6-Difluoro-3-(6-fluoro-3-methyl-5-(7-(methylsulfonyl)-4,7-diazaspiro[2.5]octan-4-yl)-1H-indazol-1-yl)-5-(trifluoromethyl)phenol]
< 100 nM | Cc1nn(-c2ccc(Cl)c(O)c2F)c2cc(F)c(N3CCN(S(C)(=O)=O)CC34CC4)cc12 [Compound 19.104, 6-Chloro-2-fluoro-3-(6-fluoro-3-methyl-5-(7-(methylsulfonyl)-4,7-diazaspiro[2.5]octan-4-yl)-1H-indazol-1-yl)phenol]
< 100 nM | Cc1nn(-c2cc(C(F)(F)F)c(F)c(O)c2F)c2cnc(N3CCN(S(C)(=O)=O)C4(CCCCC4)C3)cc12 [Compound 19.105, 2,6-Difluoro-3-(3-methyl-5-(1-(methylsulfonyl)-1,4-diazaspiro[5.5]undecan-4-yl)-1H-pyrazolo[3,4-c]pyridin-1-yl)-5-(trifluoromethyl)phenol]
< 100 nM | Cc1nn(-c2cc(C(F)(F)F)c(F)c(O)c2F)c2cnc(N3CCN(S(C)(=O)=O)CC34CC4)nc12 [Compound 19.107, 2,6-Difluoro-3-(3-methyl-5-(7-(methylsulfonyl)-4,7-diazaspiro[2.5]octan-4-yl)-1H-pyrazolo[4,3-d]pyrimidin-1-yl)-5-(trifluoromethyl)phenol]
< 100 nM | Cc1nn(-c2cc(C(F)(F)F)c(F)c(O)c2F)c2cnc(N3CCO[C@H](c4ccccc4)C3)cc12 [Compound 19.108, (R)-2,6-Difluoro-3-(3-methyl-5-(2-phenylmorpholino)-1H-pyrazolo[3,4-c]pyridin-1-yl)-5-(trifluoromethyl)phenol]
< 100 nM | Cc1nn(-c2cc(C(F)(F)F)c(Cl)c(O)c2F)c2cc(F)c(N3CCN(S(C)(=O)=O)CC34CC4)cc12 [Compound 19.110, 2-Chloro-6-fluoro-5-(6-fluoro-3-methyl-5-(7-(methylsulfonyl)-4,7-diazaspiro[2.5]octan-4-yl)-1H-indazol-1-yl)-3-(trifluoromethyl)phenol]
